In general, EC50 refers to the concentration giving half of the maximal effect. A high value points to weaker potency.

Each structure is given as a SMILES string.

This assay addresses T1, human RORgT (Homo sapiens, UniProt P51449).
T1 construct: expressed in transfected cells
T1 sequence (P51449 267-516): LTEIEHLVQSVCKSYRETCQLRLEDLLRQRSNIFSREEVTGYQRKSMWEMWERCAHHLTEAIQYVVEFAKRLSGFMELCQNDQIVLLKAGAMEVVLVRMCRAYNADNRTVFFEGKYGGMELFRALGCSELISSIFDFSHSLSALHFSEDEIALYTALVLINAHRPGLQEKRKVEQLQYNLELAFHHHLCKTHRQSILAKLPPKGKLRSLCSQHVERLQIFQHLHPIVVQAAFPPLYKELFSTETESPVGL
Kind of assay: RORgT Gal4 Luciferase Reporter Gene Assay. The note with it: engineered Jurkat cells overexpressing RORgT (LBD or full length) fused with Gal4 Luc reporter; 18 hours at 37° C.; luminescence. The class given is cell-based. As to the method: RORgT Gal4 Luciferase Reporter Gene Assay
25 µL of cryopreserved Jurkat cells over expressing ligand binding domain (LBD) of RORgT (aa267-516, NM_005060) and Gal4 Luc, or full length of human RORgT and Gal4 Luc, were plated in 384-well solid white cell culture plates (PerkinElmer 6007899), with a density of 10,000 cells/well in RPMI 1640 cell culture media (Gibco 11875-085). The media contained 0.1% BSA, 10 mM HEPES (Gibco 15360-080), […] Sodium Pyruvate (Gibco 11360-040), […] Hygromycin B (Invitrogen 10687-010), and […] Blasticidin (Invitrogen R210-01).
100 nL of compound at varying concentrations in 3-fold serial dilution, with final concentrations ranging from 40 µM to 0.67 nM, were added to the cells using Labcyte Echo 550. The compound and the cells were incubated for 18 hours at 37° C. in a cell culture incubator. Cells were then lysed with 15 uL of Steady-Glo Luciferase Assay reagent (Promega EZ550), followed by centrifuging the assay plates at 1500 RPM for 1 minute. Subsequently, the plates were read on the Envision (PerkinElmer). The inhibition of constitutive activity of RORgT achieved by graded concentrations of compound was calculated as a percentage of the luminescence signal window reduction over a control compound.
(In a reporter assay the amount or activity of a reporter protein is the signal.)
Turning to `O=C(O)C12CCC(C(=O)N3CC[C@@]4(S(=O)(=O)c5ccccc5)c5ccc(OCc6c(Cl)cccc6Cl)cc5CC[C@@H]34)(CC1)CC2` [Example 81, 4-[(3aR,9bR)-9b-(benzenesulfonyl)-7-[(2,6-dichlorophenyl)methoxy]-1H,2H,3H,3aH,4H,5H,9bH-benzo[e]indole-3-carbonyl]bicyclo[2.2.2]octane-1-carboxylic acid], it took 0.025 µM to reach a half-maximal effect (EC50).

In the case of `O=C(O)[C@H]1CC[C@H](C(=O)N2CC[C@@]3(S(=O)(=O)c4ccc(F)cc4)c4ccc(OCc5cc(Cl)ccc5Cl)cc4CC[C@@H]23)CC1` [Example 205, (1r,4r)-4-[(3aR,9bR)-7-[(2,5-dichlorophenyl)methoxy] -9b-(4-fluorobenzenesulfonyl)-1H,2H,3H,3aH,4H,5H,9bH-benzo[e]indole-3-carbonyl]cyclohexane-1-carboxylic acid], the EC50 was found to be 0.0095 µM.

Molecule `O=C(C1CCS(=O)(=O)CC1)N1CC[C@@]2(S(=O)(=O)c3ccccc3)c3ccc(OCc4c(Cl)cccc4Cl)cc3CC[C@@H]12` [Example 126, 4-[(3aR,9bR)-9b-(benzenesulfonyl)-7-[(2,6-dichlorophenyl)methoxy]-1H,2H,3H,3aH,4H,5H,9bH-benzo[e]indole-3-carbonyl]-1λ^6-thiane-1,1-dione] yielded an EC50 of 0.0085 µM.

Turning to `O=C(CN1CCCCS1(=O)=O)N1CC[C@@]2(S(=O)(=O)c3ccccc3)c3ccc(OCc4c(Cl)cccc4Cl)cc3CC[C@@H]12` [Example 64, 2-{2-[(3aR,9bR)-9b-(benzenesulfonyl)-7-[(2,6-dichlorophenyl)methoxy]-1H,2H,3H,3aH,4H,5H,9bH-benzo[e]indol-3-yl]-2-oxoethyl}-1λ^6,2-thiazinane-1,1-dione], the midpoint of the response, the EC50, lay at 0.921 µM.

For the molecule `O=C1CCCN1CCN1CC[C@@]2(S(=O)(=O)c3ccccc3)c3ccc(OCc4c(Cl)cccc4Cl)cc3CC[C@@H]12` [Example 71, 1-{2-[(3aR,9bR)-9b-(benzenesulfonyl)-7-[(2,6-dichlorophenyl)methoxy]-1H,2H,3H,3aH,4H,5H,9bH-benzo[e]indol-3-yl]ethyl}pyrrolidin-2-one], a half-maximal response (EC50) required 0.667 µM.

Turning to `O=C(O)[C@H]1CC[C@H](C(=O)N2CC[C@@]3(S(=O)(=O)c4ccccc4)c4ccc(OCc5c(F)cccc5Cl)cc4CC[C@@H]23)CC1` [Example 142, (1r,4r)-4-[(3aR,9bR)-9b-(benzenesulfonyl)-7-[(2-chloro-6-fluorophenyl)methoxy]-1H,2H,3H,3aH,4H,5H,9bH-benzo[e]indole-3-carbonyl]cyclohexane-1-carboxylic acid], it took 0.013 µM to reach a half-maximal effect (EC50). This EC50 is about 51-fold lower than that of the molecule before.

`O=C(NC1CCOCC1)N1CC[C@@]2(S(=O)(=O)c3ccccc3)c3ccc(OCc4c(Cl)cccc4Cl)cc3CC[C@@H]12` [Example 89, (3aR,9bR)-9b-(benzenesulfonyl)-7-[(2,6-dichlorophenyl)methoxy]-N-(oxan-4-yl)-1H,2H,3H,3aH,4H,5H,9bH-benzo[e]indole-3-carboxamide] gave an EC50 of 0.114 µM.

Regarding `CN1CCCC(C(=O)N2CC[C@@]3(S(=O)(=O)c4ccccc4)c4ccc(OCc5c(Cl)cccc5Cl)cc4CC[C@@H]23)C1` (stereo partly drawn) [Example 97, 3-[(3aR,9bR)-9b-(benzenesulfonyl)-7-[(2,6-dichlorophenyl)methoxy]-1H,2H,3H,3aH,4H,5H,9bH-benzo[e]indole-3-carbonyl]-1-methylpiperidine], the EC50 amounted to 0.846 µM.

Turning to `O=C(C1CCS(=O)(=O)C1)N1CC[C@@]2(S(=O)(=O)c3ccc(F)cc3)c3ccc(OCc4cc(F)c(F)cc4Cl)cc3CC[C@@H]12` (stereo partly drawn) [Example 213, 3-[(3aR,9bR)-7-[(2-chloro-4,5-difluorophenyl)methoxy]-9b-(4-fluorobenzenesulfonyl)-1H,2H,3H,3aH,4H,5H,9bH-benzo[e]indole-3-carbonyl]-1λ^6-thiolane-1,1-dione], a half-maximal effect (EC50) was put at 0.0049 µM.

For `CC(=O)N1CCC(C(=O)N2CC[C@@]3(S(=O)(=O)c4ccc(F)cc4)c4ccc(OCc5c(F)cccc5C(F)(F)F)cc4CC[C@@H]23)CC1` [Example 182, 1-{4-[(3aR,9bR)-7-{[2-fluoro-6-(trifluoromethyl)phenyl]methoxy}-9b-(4-fluorobenzenesulfonyl)-1H,2H,3H,3aH,4H,5H,9bH-benzo[e]indole-3-carbonyl]piperidin-1-yl}ethan-1-one], the EC50 came out at 0.016 µM.

`N#CCCN1C(=O)CC[C@H]1C(=O)N1CC[C@@]2(S(=O)(=O)c3ccc(F)cc3)c3ccc(OCc4c(F)cccc4C(F)(F)F)cc3CC[C@@H]12` [Example 155, 3-[(2S)-2-[(3aR,9bR)-7-{[2-fluoro-6-(trifluoromethyl)phenyl]methoxy}-9b-(4-fluorobenzenesulfonyl)-1H,2H,3H,3aH,4H,5H,9bH-benzo[e]indole-3-carbonyl]-5-oxopyrrolidin-1-yl]propanenitrile] yielded a 50% effective concentration (EC50) of 0.0043 µM.

As for `O=C(C1CCS(=O)(=O)CC1)N1CC[C@@]2(S(=O)(=O)c3ccc(F)cc3)c3ccc(Oc4ccccc4)cc3CC[C@@H]12` [Example 36], the EC50 came out at 0.0041 µM.

Molecule `O=C(CC1CCS(=O)(=O)CC1)N1CC[C@@]2(S(=O)(=O)c3ccccc3)c3ccc(OCc4c(Cl)cccc4Cl)cc3CC[C@@H]12` [Example 56, 4-{2-[(3aR,9bR)-9b-(benzenesulfonyl)-7-[(2,6-dichlorophenyl)methoxy]-1H,2H,3H,3aH,4H,5H,9bH-benzo[e]indol-3-yl]-2-oxoethyl}-1λ^6-thiane-1,1-dione] yielded an EC50 of 0.066 µM.

For `CC(=O)N1CCC(C(=O)N2CC[C@@]3(S(=O)(=O)c4ccccc4)c4ccc(OCc5c(F)cccc5Cl)cc4CC[C@@H]23)CC1` [Example 136, 1-{4-[(3aR,9bR)-9b-(benzenesulfonyl)-7-[(2-chloro-6-fluorophenyl)methoxy]-1H,2H,3H,3aH,4H,5H,9bH-benzo[e]indole-3-carbonyl]piperidin-1-yl}ethan-1-one], the EC50 was 0.016 µM.

`NC(=O)N1CCC(C(=O)N2CC[C@@]3(S(=O)(=O)c4ccccc4)c4ccc(OCc5ccccc5)cc4CC[C@@H]23)CC1` [Example 78, 4-[(3aR,9bR)-9b-(benzenesulfonyl)-7-(benzyloxy)-1H,2H,3H,3aH,4H,5H,9bH-benzo[e]indole-3-carbonyl]piperidine-1-carboxamide]: the concentration for a half-maximal effect (EC50) stood at 0.14 µM.

As to `O=C(CC1CCS(=O)(=O)C1)N1CC[C@@]2(S(=O)(=O)c3ccc(F)cc3)c3ccc(OCc4c(F)cccc4Cl)cc3CC[C@@H]12` (stereo partly drawn) [Example 15, 3-{2-[(3aR,9bR)-7-[(2-chloro-6-fluorophenyl)methoxy]-9b-(4-fluorobenzenesulfonyl)-1H,2H,3H,3aH,4H,5H,9bH-benzo[e]indol-3-yl]-2-oxoethyl}-1λ^6-thiolane-1,1-dione], the EC50 worked out at 0.0038 µM.

In turn, `NC(=O)N1CCC(C(=O)N2CC[C@@]3(S(=O)(=O)c4ccc(F)cc4)c4ccc(OCc5cc(F)ccc5Cl)cc4CC[C@@H]23)CC1` [Example 179, 4-[(3aR,9bR)-7-[(2-chloro-5-fluorophenyl)methoxy]-9b-(4-fluorobenzenesulfonyl)-1H,2H,3H,3aH,4H,5H,9bH-benzo[e]indole-3-carbonyl]piperidine-1-carboxamide] showed an EC50 of 0.012 µM.

As for `O=C(O)[C@H]1CC[C@H](C(=O)N2CC[C@@]3(S(=O)(=O)c4ccc(F)cc4)c4ccc(CCc5c(Cl)cccc5Cl)cc4CC[C@@H]23)CC1` [Example 159, (1r,4r)-4-[(3aR,9bR)-7-[2-(2,6-dichlorophenyl)ethyl]-9b-(4-fluorobenzenesulfonyl)-1H,2H,3H,3aH,4H,5H,9bH-benzo[e]indole-3-carbonyl]cyclohexane-1-carboxylic acid], the midpoint of the response, the EC50, lay at 0.0011 µM.

The record behind these values is patent US20230295087A1, “AGONISTS OF ROR GAMMAt” (BRISTOL-MYERS SQUIBB COMPANY, priority 2019, published 2023).
